The values below come from US20130217776A1, “Combination of a Serotonin Reuptake Inhibitor and Agomelatine” (H. Lundbeck A/S, priority 2003, published 2013).

This test relates to serotonin in terminal areas. Description: microdialysis experiments (level of serotonin in terminal areas). It is filed as in vivo. Conditions: administration of agomelatine alone. An excerpt:
Administration of agomelatine alone causes no increase in serotonin levels as measured in microdialysis experiments.

Consider `COc1ccc2cccc(CCNC(C)=O)c2c1` [agomelatine], for which the “serotonin levels as measured in microdialysis experiments” value is listed as “no increase”.
